Here are results for four compounds from patent US20040142961A1, “Utilization of substituted imidazo[1,2-a]-pyridine compounds in pharmaceutical formulations” (priority 2001, published 2004).

Structures are written as SMILES.

This experiment addresses T1, nitric oxide synthase (Rattus norvegicus, UniProt P29476).
T1 construct: the supernatant was then decanted and frozen in portions; from tissue; host or cells: rat cerebellum, homogenate supernatant after 20,000 g
In words: HTS NO synthase assay. The settings on record: 10 μM test compound; enzyme from rat cerebellum; [3H]arginine substrate; read-out: Inhibition of nitric oxide synthase (10 μM) in per cent. It counts as biochemical. The procedure:
This assay allows the determination of the percentage inhibition of NO synthase by a compound of formula I employed according to the invention by measuring the NO synthase activity under the action of the compound. In this procedure, NO synthase is mixed together with radioactively labelled arginine and the particular compound of formula I under suitable conditions. After interruption of the NO formation reaction at a given point in time, the amount of unreacted arginine is determined directly or indirectly. Comparison of this amount with the amount of arginine remaining from the mixture of NO synthase and arginine free of the test compound of formula I and under otherwise identical conditions gives the percentage inhibition of NO synthase by the test compound. This assay can be carried out as follows:
(a) incubation of NO synthase with labelled arginine as the substrate in a reaction vessel,
(b) separation of the labelled arginine from labelled citrulline formed as the product of the enzymatic reaction at a point in time at which the concentration of citrulline is increasing, and
(c) measurement of the amount of arginine separated in each case.
The separation is carried out through a filter plate membrane.
In this HTS NO synthase assay, radioactive arginine is used as the substrate. The assay volume can be chosen in the range between 25 μl and 250 μl, depending on the nature of the microtiter plate (MTP). Cofactors and coenzymes are added, depending on the enzyme source used. The incubation of the batches in this microtiter plate (assay MTP) according to step (a) is carried out at room temperature for between 5 and 60 minutes, depending on the enzyme activity (units) used. At the end of the incubation (step (a)), the plate is placed in a cell harvester equipped with an MTP which has a cation exchanger membrane as the filter base (filter MTP). All the batches of the assay MTP are transferred into this filter MTP and filtered with suction over a cation exchanger filter plate, i.e., a filter paper loaded with phosphate groups. The filter MTP is then washed with buffer or water. Using this procedure, the arginine substrate which remains is bound to the cation exchanger, while the radioactive citrulline formed enzymatically is washed out quantitatively. After drying of the filter MTP and addition of scintillation liquid, the bound arginine can be counted on a scintillation counter. An NO synthase reaction which has not been inhibited is reflected in a low radioactivity. An inhibited enzyme reaction means that the radioactive arginine has not been reacted. That is to say, a high radioactivity is found on the filter. […]
The plate was then dried for 1 hour at 60° C. in a drying cabinet. […] After a waiting time of 1 hour, the plate was measured on a β-counter.
In the case of `COc1ccc(-c2cn3ccc(C)cc3n2)cc1` [Example 1, 2-(4-Methoxy-phenyl)-7-methyl-imidazo[1,2-a]pyridine], the inhibition at 10 µM was found to be 39%. For the compound `Cc1ccn2cc(C)nc2c1` [Example 2, 2,7-Dimethyl-imidazo[1,2-a]pyridine], the inhibition at 10 µM is 68%. The result for `Cc1ccn2ccnc2c1` [Example 3, 7-Methyl-imidazo[1,2-a]pyridine] reads 53%; that for `Cc1ccn2cc(C(C)(C)C)nc2c1` [Example 4, 2-tert-Butyl-7-methyl-imidazo[1,2-a]pyridine], 89%.
